Experimental data from patent US20220105096A1, “INHIBITORS OF HUMAN IMMUNODEFICIENCY VIRUS REPLICATION” (ViiV HEALTHCARE UK (NO.5) LIMITED, priority 2019, published 2022).

What was measured:
[1] = system: recombinant NL4-3 virus; experiment: Antiviral potency in MT-2 cells infected with recombinant NL4-3 Renilla luciferase virus; type: cell-based, HIV; conditions: Human immunodeficiency virus 1, NL43, MT2
Method: MT-2 cells, 293T cells and the proviral DNA clone of NL4-3 virus were obtained from the NIH AIDS Research and Reference Reagent Program. MT-2 cells were propagated in RPMI 1640 media supplemented with 10% heat inactivated fetal bovine serum (FBS), […]. The 293T cells were propagated in DMEM media supplemented with 10% heat inactivated FBS, […] penicillin G and […] streptomycin. A recombinant NL4-3 proviral clone, in which a section of the nef gene was replaced with the Renilla luciferase gene, was used to make the reference virus used in these studies. The recombinant virus was prepared through transfection of the recombinant NL4-3 proviral clone into 293T cells using Transit-293 Transfection Reagent from Mirus Bio LLC (Madison, Wis.). Supernatant was harvested after 2-3 days and the amount of virus present was titered in MT-2 cells using luciferase enzyme activity as a marker by measuring luciferase enzyme activity. Luciferase was quantitated using the EnduRen Live Cell Substrate from Promega (Madison, Wis.). Antiviral activities of compounds toward the recombinant virus were quantified by measuring luciferase activity in MT-2 cells infected for 4-5 days with the recombinant virus in the presence of serial dilutions of the compound. […]

[2] = Pharmacokinetic parameters in vivo, rat; design: species or system Wistar Han Rats; conditions: Wistar Han, plasma
Method: PK was investigated in male CD1 mice, Wistar Han Rats, Cynomolgus monkeys, and Beagle Dogs. Two groups of animals (N=3 per group) received test compound either as an intravenous (IV) dose (1 mg/kg) or by oral gavage (5 mg/kg solution and suspension). Drug was formulated in 90% PEG 400, 10% ethanol for IV administration and in 90% PEG400, 5% ethanol for PO administration. Blood samples were collected at 0.167, 0.25, 0.5, 0.75, 1, 2, 3, 5, 7, 24, 48, 72 and 96 h post dose for IV; 0.25, 0.5, 0.75, 1, 2, 3, 5, 7, 24, 48, 72 and 96 h post dose for oral. Blood samples were collected into K3EDTA tubes and centrifuged at 1500 to 2000×g to obtain plasma. Plasma samples were stored at −20° C. until analysis by LC-MS/MS. All […] samples were injected on an Exion LC 4500 Triple Quad™ LC-MS/MS system. The analytical column used was a Phenomenex C18 (C18, 4.6 mm×50 mm, 5 μm) maintained at room temperature. Mobile Phase A consisted of 0.1% (v/v) formic acid in MilliQ water. Mobile Phase B consisted of 100% methanol. The flow rate was 1 mL/min. […] All LC-MS/MS analysis parameters are captured electronically in the raw data files. The PK parameters were obtained by non-compartmental analysis of plasma concentration vs time data (Phoenix WinNonlin v8). The peak concentration (Cmax) and time for Cmax (Tmax) were recorded directly from experimental observations. The area under the curve from time zero to the last sampling time [AUC0-T] and the area under the curve from time zero to infinity [AUCINF] were calculated using a combination of linear and log trapezoidal summations. The total plasma clearance (CLTp), steady-state volume of distribution (Vss), apparent elimination half-life (T-HALF), and mean residence time (MRT) were estimated after IV administration. Estimations of AUC and T-HALF were made using a minimum of three timepoints with quantifiable concentrations. The absolute oral bioavailability (F) was estimated as the ratio of dose-normalized AUC values following oral and IV doses.

[3] = Allometric scaling of pre-clinical PK parameters to predict dose in human
Method: Human dose predictions were performed using Phoenix WinNonlin (v 8.0) software and Microsoft Excel using the ModelRisk add-in for population modeling. Human IV parameters (Vc, Ka, K12, K21, KeI) were determined using Mean Residence Time (MRT) scaling from preclinical species (mouse, rat, dog and cyno). For this calculation, each animal of the relevant PK studies was modeled independently. Absorption (Ka) was determined by deconvolution (PO) or from the half-life (SC) in preclinical species (Ka=LN(2)/t1/2). The predicted human dose for PO and SC is calculated with consideration of human variability and is calculated to cover 95% of the human population.

[4] = system: CYP2B6; experiment: Cytochrome P450 (CYP2B6) induction in cryopreserved human hepatocytes; type: cell-based; conditions: hepatocytes from three individual donors, 0.12 to 30 μM, 48 hours
Method: Following the guidance of the FDA (“In Vitro Metabolism- and Transporter-Mediated Drug-Drug Interaction Studies Guidance for Industry”), the potential of Example 1 and Example 60.2 to induce CYP2B6 expression was tested using hepatocytes from the same three individual donors (rather than pooled donors), and changes in enzyme mRNA levels were evaluated using the “fold-change method”. In this test a fold-change in mRNA levels less than 2-fold is considered a negative finding, while a change ≥2-fold is considered a positive finding.
Compounds were tested in a CYP induction assay using inducible cryopreserved human primary hepatocytes from three donors to determine the potential to cause induction (as measured by an increase in mRNA transcription) of CYP2B6. […] At the end of the incubation, the integrity of cell monolayers, cell density and viability were evaluated to assess cytotoxicity effects. […] It was then used in reverse transcription polymerase chain reactions (RT-PCR) to quantify the amount of specific mRNA species encoding human CYP3A4, CYP2B6, and CYP1A2 genes.
The induction potential of test compounds and controls was compared to known CYP2B6 inducer Phenobarbital (1000 μM). The results of this assay are expressed as fold induction. […] The cytotoxicity was also assessed in parallel to avoid false positive CYP induction results due to cytotoxicity. […]

Cn1nc(NS(C)(=O)=O)c2c(Cl)ccc(-n3c([C@H](Cc4cc(F)cc(F)c4)NC(=O)Cn4nc(C(F)F)c5c4C(F)(F)[C@@H]4C[C@H]54)nc4nc(OCCC(C)(F)F)ccc4c3=O)c21 (atropisomer, axis not shown; (P)) [Example 1, N—((S)-1-((3P)-3-(4-chloro-1-methyl-3-(methylsulfonamido)-1H-indazol-7-yl)-7-(3,3-difluorobutoxy)-4-oxo-3,4-dihydropyrido[2,3-d]pyrimidin-2-yl)-2-(3,5-difluorophenyl)ethyl)-2-((3bS,4aR)-3-(difluoromethyl)-5,5-difluoro-3b,4,4a,5-tetrahydro-1H-cyclopropa[3,4]cyclopenta[1,2-c]pyrazol-1-yl)acetamide]
EC50 [1]: 0.019 ± 0.006 nM | clearance ([2]; IV 1 mg/kg): 3.6 mL/min/kg | half-life ([2]; IV 1 mg/kg): 10.2 h | Vd ([2]; IV 1 mg/kg, read-out: Vss): 1.76 L/kg | bioavailability ([2]; oral gavage 5 mg/kg solution vs IV 1 mg/kg): 57.5% | predicted once-daily oral dose in human lower than for Example 60.2 ([3]; Example 1 versus Example 60.2): 15 fold | predicted Q1M SC dose in human lower than for Example 60.2 ([3]; from SC rat apparent half-lives and predicted human clearance): 20 fold | predicted human QD PO dose ([3]; once-daily oral dose to maintain efficacious plasma concentration, covers 95% of human population): less than 5 mg | CYP2B6 induction finding (mRNA fold-change method) [4]: negative finding (a fold-change in mRNA levels less than 2-fold is considered a negative finding)
